What was measured:
[1] = healthy volunteers, cited from earlier work
[2] = Clinical trials of Compound 1: resistance and tolerability; assay type: in vivo, human
Text: Compound 1, is also known as “sofosbuvir” or “SOF”.

| Structure (SMILES) | increases in Compound 1 exposure from co-administration ([1]; co-administration with GS-5885, GS-9669, and GS-5885+GS-9669) | tolerability [2] | exposure on concurrent administration of Compound 1 [1] |
| --- | --- | --- | --- |
| CC(C)OC(=O)[C@H](C)N[P@](=O)(OC[C@H]1O[C@@H](n2ccc(=O)[nH]c2=O)[C@](C)(F)[C@@H]1O)Oc1ccccc1 [Compound 1, (S)-isopropyl2-(((S)-(((2R,3R,4R,5R)-5-(2,4-dioxo-3,4-dihydrophyrimidin-1(2H)-yl)-4-fluoro-3-hydroxy-4-methyltetrahydrofuran-2-yl)methoxy)(phenoxy)phosphoryl)amino)propanoate] | not clinically significant | well-tolerated |  |
| COC(=O)N[C@H](C(=O)N1CC2(CC2)C[C@H]1c1ncc(-c2ccc3c(c2)C(F)(F)c2cc(-c4ccc5nc([C@@H]6[C@H]7CC[C@H](C7)N6C(=O)[C@@H](NC(=O)OC)C(C)C)[nH]c5c4)ccc2-3)[nH]1)C(C)C [GS-5885] |  |  | unaffected |
| COC[C@H]1C[C@@H](c2ncc(-c3ccc4c(c3)COc3cc5c(ccc6nc([C@@H]7CC[C@H](C)N7C(=O)[C@@H](NC(=O)OC)C(C)C)[nH]c65)cc3-4)[nH]2)N(C(=O)[C@H](NC(=O)OC)c2ccccc2)C1 [GS-9669] |  |  | unaffected |

From patent US20150150897A1, “METHODS OF TREATING HEPATITIS C VIRUS INFECTION IN SUBJECTS WITH CIRRHOSIS” (priority 2013, published 2015)
